Measured values published in PubChem BioAssay AID2401 (Southern Research Specialized Biocontainment Screening …, 2010).
Where “and” joins values, the source holds several entries; their conditions need not be identical. Equal entries are not always repeated.

Test system: S. Typhimurium GFP reporter counter-screen, fluorescence, 4 h
Assay: nmpC-GFP reporter counter-screen in S. Typhimurium, dose response, counter-screen for PhoP regulon inhibitor project, Salmonella Typhimurium, GFP fluorescence (AID 2401);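 also: S. typhimurium with Mg-insensitive nmpC-GFP reporter grown at 10 µM Mg2+; drop in reporter fluorescence reflects general culture growth inhibition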

| SMILES | IC50 |
| --- | --- |
| Cc1ccc(C)c(/C=C/C(=O)c2ccccc(=O)c2O)c1 | 38.9 µM |
| COc1c(N2CCN(C(=S)NC3CC4CCC3C4)C(C)C2)c(F)cc2c(=O)c(C(=O)O)cn(C3CC3)c12 (stereo not given) | 72.9 µM |
| COc1cc(Cc2cc(N)nc(N)n2)cc(OC)c1OC | 0.74 µM |
| CCCOc1ccc(C(=O)NC(=S)N2CCN(c3cc4c(cc3F)c(=O)c(C(=O)O)cn4CC)CC2)cc1 | 56.5 µM |
| Cc1nc(N)c(Cc2ccc(Cl)cc2Cl)c(N)n1 | 40.6 µM |
| S=c1nc(C2CCCCC2)[nH][nH]1 | 99 µM |
| Cc1cc(C(=O)N/N=C/c2ccc(O)c(O)c2O)c(C)n1-c1ccccc1 | 22.8 µM |
| CCOc1cc(/C=N/N=C(N)N)ccc1OCc1ccc(Cl)cc1 | 52.4 µM |
| COc1ccc(C(C[N+](=O)[O-])n2nc(C)cc2C)cc1 (stereo not given) | 13.4 µM |
| Nc1nonc1C(=O)N/N=C/c1cc(Br)ccc1O | 9.03 µM |
| CCCC(=O)NC(c1ccccc1)c1ccc2cccnc2c1O (stereo not given) | 40 µM |
| CCc1ccc(-c2nn(-c3ccccc3)cc2CSC(=N)N)cc1 | 53.1 µM |
| O=C(Oc1c(Cl)cc(Cl)c2cccnc12)c1ccco1 | 21.6 µM |
| Cc1ccc(-c2c[n+](CC(=O)Nc3nc(-c4ccc(F)cc4)cs3)c3n2CCC3)cc1 | 42.3 µM |
| CCC(C)N1CCC2(CC1)N=c1c(c3c4c5c(C)c(O)c3c(O)c1=NC(=O)C(C)=CC=C[C@H](C)[C@H](O)[C@@H](C)[C@@H](O)[C@@H](C)[C@H](OC(C)=O)[C@H](C)[C@@H](OC)C=CO[C@@](C)(O5)C4=O)N2 (stereo not given in full) | 2.28 µM |
| CN(C)CCCNc1cc(C(C)(C)C)nc2c(-c3ccccc3)cnn12 | 53.6 µM |
| CCCNC1=C(C)C(=O)C2=C(C1=O)C(COC(N)=O)[C@]1(OC)C3NC3CN21 (stereo not given in full) | 128 µM |
| O=C(N/N=C/c1coc2ccc(Cl)cc2c1=O)c1cc(O)cc(O)c1 | 88 µM |
| O=[N+]([O-])c1ccc(CNC2CCCc3ccccc32)cc1 (stereo not given) | 97.4 µM |
| CC(=O)N1CCN(c2cc3c(cc2F)c(=O)c(C(=O)O)cn3C2CC2)CC1 | 36.5 µM |
| C/C(CC(=O)Nc1ccc(Cl)c(C(F)(F)F)c1)=N\NC(=O)c1ccccc1O | 117 µM |
| Cc1cc(/C=N/n2c(COc3ccccc3)nc3ccccc3c2=O)c(O)c([N+](=O)[O-])c1 | 56.5 µM |
| Oc1cccc2ccc(Nc3ccccn3)nc12 | 10.7 µM |
| O=C(N/N=C\c1cccc([N+](=O)[O-])c1O)C1COc2ccccc2O1 (stereo not given) | 54.6 µM |
| CCCCOc1ccc(Br)cc1CSC(=N)N | 75.5 µM |
| O=C(N/N=C/c1sc2ccccc2c1O)c1cccc2ccccc12 | 23.6 µM |
| O=S1(=O)CCC(NC(=S)SCCOc2ccccc2)C1 (stereo not given) | 64.8 µM |
| O=C1NC(=S)S/C1=C\C=C\c1ccc([N+](=O)[O-])o1 | 21.7 µM |

| SMILES | IC50 |
| --- | --- |
| COc1cccc(/C=N\NC(=O)Cn2nnc3ccccc32)c1O | 57.6 µM |
| CC[n+]1c(/C=C/C=C/c2ccc(N(C)C)cc2)sc2ccccc21 | 72.9 µM |
| CCC(C)(C)c1ccc(OCCCC[n+]2ccc(C)cc2)c(C(C)(C)CC)c1 | 48.4 µM |
| C#CCOCCOCCOCCNc1nc(N2CCN(C(=O)CCCCCCCCCCNC(=O)[C@H](CO)n3cc(CCCCCN)nn3)CC2)nc(N2CCN(C(=O)CCCCCCCCCCNC(=O)[C@H](CCCN=C(N)N)n3cc(C[C@@H](C)CC)nn3)CC2)n1 | 86.2 µM |
| NC1=NC[C@H](Cc2ccccc2)N1CCCCC1CCCCC1 | 45.9 µM |
| O=C(N/N=C/c1cccs1)c1cccs1 | 67.8 µM |
| CCCCCCCSc1cc(OC)c(CCNC)cc1OC | 39.4 µM |
| CCCCCCCCCCOC(=O)Cn1c(COc2ccc(OC)cc2)[n+](C)c2ccccc21 | 21.2 µM and 22.3 µM |
| CCCCCCCOC(=O)C[N+](C)(C)CCOC1CC2CCC1(C)C2(C)C (stereo not given) | 20.1 µM |
| CCCCN(CCCC)C(=O)c1cn(CC)c2cc(N3CCN(C)CC3)c(F)cc2c1=O | 21.9 µM |
| CCCCCCCNC(=O)C1(CC2CC(c3cccc(Br)c3)=NO2)CCNCC1 (stereo not given) | 37.7 µM |
| Cc1ccc(Nc2cc(C)c3ccc(O)cc3n2)cc1C | 146 µM |
| Oc1ccc(N=Cc2ccc(O)c(O)c2)cc1 | 118 µM |
| Nc1ccc2nc(-c3cc(Cl)c(N)c(Cl)c3)[nH]c2c1 | 80.7 µM |
| CCCCCCCCCCCCCCCC[N+](C)(C)C | 30.5 µM |
| Cc1ccc(S(=O)(=O)/N=C2/C=C(Sc3ncn[nH]3)C(=O)c3ccccc32)c(C)c1 | 149 µM |
| CN1CCN(C(c2ccc(C(F)(F)F)cc2)c2cc(Cl)c3cccnc3c2O)CC1 (stereo not given) | 21 µM |
| CCn1cc(C(=O)O)c(=O)c2cc(F)c(N3CCN(C(=S)NC(=O)c4ccccc4)CC3)cc21 | 29.8 µM |
| O=C(N/N=C/c1cc([N+](=O)[O-])ccc1O)c1ccncc1 | 24.2 µM |
| NC1=NC[C@H](Cc2ccc(O)cc2)N1CCCCC1CCCCC1 | 51 µM |
| CCCCCCCCCn1c2c(c(=N)c3c1CCC3)CCC2 | 37.2 µM |
| OC(c1cc(C(F)(F)F)nc2c(Cl)cc(Cl)cc12)C1CCCCN1 (stereo not given) | 80.5 µM |
| COc1ccccc1CNCCc1ccc(F)cc1 | 35 µM |
| O=C(N/N=C/c1ccc(Sc2ccccn2)o1)c1cc2ccccc2cc1O | 107 µM |
| Cc1c2ccncc2c(C)c2c1[nH]c1ccccc12 | 19.6 µM |
| COc1ccc(C(C[N+](=O)[O-])C2(c3ccc(OC)c(OC)c3)C(=O)c3ccccc3C2=O)cc1 (stereo not given) | 23.2 µM |
| Nc1ccc2c(c1)C(=O)C(=O)c1ccccc1-2 | 11 µM |
